The text below walks through data of patent publication US10857234B2, “Carbonic anhydrase IX inhibitor conjugates and uses thereof” (Endocyte, Inc., priority 2016, dated 2020).

Assay [1] addresses T1, CA IX (Homo sapiens, UniProt Q16790).
T1 construct: endogenous in cells; host or cells: HT29 cells under hypoxia (1.3% O2)
Description: CA IX competitive binding assay (pH 6.8 vs. 7.4 buffers + Zn2+). To be noted: HT29 cells, 2 nM 125I-EC2674, 2 hr, 37° C. The method, then:
HT29 cells were seeded into 24-well plates at 0.5×10^6 cells per well in McCoy's 5A medium containing 10% fetal bovine serum (FBS) and were allowed to attach for 48 h in an incubator with an atmosphere of 5% CO2/95% air and 37° C. The evening prior to the binding assay, cells were placed in a Hypoxylab workstation set at 10 mm Hg (1.3% O2), 5% CO2, and 37° C. (hypoxic conditions). A single concentration of ^125I-CAIX radioligand was used (2 nM). Serial dilutions of competitors (EC2674 and EC2711) were prepared in McCoy's 5A medium/10% FBS. Binding solutions (500 μL) containing the radioligand and competitor dilutions were placed on the cells, and cells were incubated in the Hypoxylab workstation for 2 h under hypoxic conditions. Cells were then removed from the Hypoxylab and were washed 3 times with ice-cold PBS, pH 7.4. Cells were solubilized with 500 μL of 0.1N NaOH/0.1% Triton X-100. Cell lysates (450 μL) were counted in a Wizard2 gamma counter (Perkin Elmer). […]
Following the procedure for the previous competitive binding assay (Example 22), the CAIX Competitive Binding Assay (pH 6.8 vs. 7.4 Buffers+Zn^2+) was carried out with the following modifications from Example 22. […] Only the homologous cold-iodine labeled CAIX ligand, EC2674, was assessed for competitive binding.

In assay [2] the target is T1, CA IX. Description: CAIX competitive binding assay. As to the method: HT29 cells were seeded into 24-well plates at 0.5×10^6 cells per well in McCoy's 5A medium containing 10% fetal bovine serum (FBS) and were allowed to attach for 48 h in an incubator with an atmosphere of 5% CO2/95% air and 37° C. The evening prior to the binding assay, cells were placed in a Hypoxylab workstation set at 10 mm Hg (1.3% O2), 5% CO2, and 37° C. (hypoxic conditions). A single concentration of ^125I-CAIX radioligand was used (2 nM). Serial dilutions of competitors (EC2674 and EC2711) were prepared in McCoy's 5A medium/10% FBS. Binding solutions (500 μL) containing the radioligand and competitor dilutions were placed on the cells, and cells were incubated in the Hypoxylab workstation for 2 h under hypoxic conditions. Cells were then removed from the Hypoxylab and were washed 3 times with ice-cold PBS, pH 7.4. Cells were solubilized with 500 μL of 0.1N NaOH/0.1% Triton X-100. Cell lysates (450 μL) were counted in a Wizard2 gamma counter (Perkin Elmer). CPM values for each competitor concentration were normalized to values for radioligand binding in the absence of competitor.

As a reminder, the IC50 is the midpoint of a concentration-inhibition curve. On to `NS(=O)(=O)c1ccc(NC(=O)CN(CCN(CC(=O)Nc2ccc(S(N)(=O)=O)cc2)CC(=O)N[C@@H](CNC(=O)CCc2cc(I)c(O)c(I)c2)C(=O)O)CC(=O)O)cc1` [EC2674], for which the 50% inhibitory concentration (IC50) on CA IX [1] (1.3% O2, pH 6.8 buffer (20 mM BES, 140 mM NaCl, 1 mM ZnSO4)) turned out to be 62.5 nM; on CA IX [1] (1.3% O2, pH 7.4 buffer (20 mM Tris, 140 mM NaCl, 1 mM ZnSO4)), 66.5 nM; at CA IX [2] (HT29 cells, 2 nM 125I-EC2674, 2 hr, 37° C., 1.3% O2, McCoy's Medium+10% FBS, read-out: IC50), 852 nM.
`CCCC(=O)OCN(C(=O)[C@@H](NC(=O)[C@H]1CCCCN1C)C(C)CC)[C@H](C[C@@H](OC(C)=O)c1nc(C(=O)N[C@@H](Cc2ccc(O)cc2)C[C@H](C)C(=O)NNC(=O)OCCSSC[C@H](NC(=O)[C@H](CC(=O)O)NC(=O)[C@H](CC(=O)O)NC(=O)[C@H](CC(=O)O)NC(=O)CN(CCN(CC(=O)O)CC(=O)Nc2ccc(S(N)(=O)=O)cc2)CC(=O)Nc2ccc(S(N)(=O)=O)cc2)C(=O)O)cs1)C(C)C` (stereo partly shown) [EC2711] yielded an IC50 on CA IX [2] of 9 nM.
